pIC50: −log10 of the molar value. Read-outs that look alike come from different tables or passages of the source. Numbered stars: 1 amine (or outer) side, 2 acyl side, 3 side chain; on linkers, the order of the positions; unused ones are H or OH. Bridge positions count the residues as written; N and C are the ends. Square brackets hold non-standard residues; d marks the D form. Peptide text beside a SMILES is read from it. I, II: the chains in the order shown. Phe(4-COOH) = N[C@@H](Cc1ccc(C(=O)O)cc1)C(=O)O; Phe(4-tBu) = CC(C)(C)c1ccc(C[C@H](N)C(=O)O)cc1; Bip = N[C@@H](Cc1ccc(-c2ccccc2)cc1)C(=O)O; 1Nal = N[C@@H](Cc1cccc2ccccc12)C(=O)O; 2Nal = N[C@@H](Cc1ccc2ccccc2c1)C(=O)O; Diglycolyl = O=C(COCC(=O)[*:2])[*:1]; NMeR = CN[C@@H](CCCNC(=N)N)C(=O)O; β3hE = N[C@@H](CCC(=O)O)CC(=O)O; NMeK = CN[C@@H](CCCCN)C(=O)O; Pen = CC(C)(S)[C@H](N)C(=O)O; dNMeK = CN[C@H](CCCCN)C(=O)O
Experiments:
rh integrin α4β7 = target: T1, rh integrin α4β7 (Homo sapiens, UniProt P13612+P26010); assay: α4β7-MAdCAM Competition ELISA; format: binding
T1 construct: purchased R&D Systems 5397-A30
Procedure, shortened: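 Recombinant human α4β7 was captured on nickel plates at 800 ng/well. Peptide in 3-fold serial dilution (final top 10 μM) competed with MAdCAM-1 (final 10 nM) for 1 h at room temperature in 50 mM Tris pH 7.6, 150 mM NaCl, 1 mM MnCl2 or MgCl2. Bound MAdCAM-1 was detected with anti-human IgG1-HRP/TMB at A450.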

α4β1 = target: T2, α4β1 (Homo sapiens, UniProt P05556+P13612, DEL729-798); assay: α4β1-VCAM Competition ELISA; format: binding
T2 construct: purchased R&D Systems 5668-A4
Procedure, shortened: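 Recombinant α4β1 (60 nM final) competed with serially diluted peptides (top final 100 μM) for VCAM-1 Fc coated at 400 ng/well, in Tris pH 7.6 with 1 mM MnCl2 or MgCl2, for 2 h at 37 °C. Bound integrin was detected with anti-CD49d 9F10 plus HRP anti-mouse IgG, using TMB read at 450 nm.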

α4β7 = α4β7 (Homo sapiens, UniProt P13612+P26010); assay: α4β7-MAdCAM Cell Adhesion Assay (RPMI 8866 human cells); format: cell-based; design: host or cells: RPMI 8866 human B lymphoblastoid cells
Procedure, shortened: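 Washed RPMI 8866 cells (200,000/well) in DMEM with 0.1% BSA, 10 mM HEPES pH 7, 1 mM MnCl2 adhered to rh MAdCAM-1/Fc-coated wells with serially diluted peptides, 30-45 min at 37 °C. After three washes, bound cells quantified by MTT, A570, cell-free background subtracted for dose response.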

[1] = Table 3-B, Potency (α4β7), range classes, read-out: α4β7 ELISA IC50
[2] = Table 3-B, Selectivity (α4β1), range classes, read-out: α4β1 ELISA IC50
[3] = Table 3-B, Potency (α4β7), range classes, read-out: α4β7 cell (Hu) IC50
[4] = Table 4-B, read-out: ELISA α4β7 IC50
[5] = Table 4-B, read-out: ELISA_α4β1 IC50
[6] = Table 4-B, read-out: Cell Adhesion α4β7 IC50

Chain of α4β7 (P13612 34-1032): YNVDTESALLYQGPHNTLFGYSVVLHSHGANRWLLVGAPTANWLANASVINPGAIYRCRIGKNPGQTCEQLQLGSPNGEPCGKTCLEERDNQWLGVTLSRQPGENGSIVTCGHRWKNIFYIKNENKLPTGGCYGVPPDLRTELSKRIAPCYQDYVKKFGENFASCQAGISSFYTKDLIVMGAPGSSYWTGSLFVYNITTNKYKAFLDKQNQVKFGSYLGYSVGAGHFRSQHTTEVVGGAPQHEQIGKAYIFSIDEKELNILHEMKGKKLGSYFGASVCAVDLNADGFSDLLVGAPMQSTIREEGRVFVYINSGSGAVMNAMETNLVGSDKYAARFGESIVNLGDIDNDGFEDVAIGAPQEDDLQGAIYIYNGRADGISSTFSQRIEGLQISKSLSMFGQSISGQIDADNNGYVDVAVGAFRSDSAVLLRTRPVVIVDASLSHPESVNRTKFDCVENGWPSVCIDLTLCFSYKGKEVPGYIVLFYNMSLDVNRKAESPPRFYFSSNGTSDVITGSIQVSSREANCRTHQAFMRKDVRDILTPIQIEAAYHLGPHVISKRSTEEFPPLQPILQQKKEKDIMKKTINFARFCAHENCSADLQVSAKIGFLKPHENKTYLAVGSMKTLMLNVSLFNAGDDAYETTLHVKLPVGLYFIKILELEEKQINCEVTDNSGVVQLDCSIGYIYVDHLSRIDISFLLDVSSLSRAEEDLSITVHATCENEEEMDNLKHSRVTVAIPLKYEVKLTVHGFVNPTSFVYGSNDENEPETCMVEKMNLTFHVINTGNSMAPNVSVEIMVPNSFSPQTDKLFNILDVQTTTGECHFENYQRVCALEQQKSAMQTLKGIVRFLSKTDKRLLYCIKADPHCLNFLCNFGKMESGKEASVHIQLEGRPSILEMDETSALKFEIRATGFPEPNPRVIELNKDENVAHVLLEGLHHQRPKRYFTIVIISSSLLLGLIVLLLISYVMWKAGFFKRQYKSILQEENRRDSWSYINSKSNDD
Chain of α4β7 (P26010 20-798): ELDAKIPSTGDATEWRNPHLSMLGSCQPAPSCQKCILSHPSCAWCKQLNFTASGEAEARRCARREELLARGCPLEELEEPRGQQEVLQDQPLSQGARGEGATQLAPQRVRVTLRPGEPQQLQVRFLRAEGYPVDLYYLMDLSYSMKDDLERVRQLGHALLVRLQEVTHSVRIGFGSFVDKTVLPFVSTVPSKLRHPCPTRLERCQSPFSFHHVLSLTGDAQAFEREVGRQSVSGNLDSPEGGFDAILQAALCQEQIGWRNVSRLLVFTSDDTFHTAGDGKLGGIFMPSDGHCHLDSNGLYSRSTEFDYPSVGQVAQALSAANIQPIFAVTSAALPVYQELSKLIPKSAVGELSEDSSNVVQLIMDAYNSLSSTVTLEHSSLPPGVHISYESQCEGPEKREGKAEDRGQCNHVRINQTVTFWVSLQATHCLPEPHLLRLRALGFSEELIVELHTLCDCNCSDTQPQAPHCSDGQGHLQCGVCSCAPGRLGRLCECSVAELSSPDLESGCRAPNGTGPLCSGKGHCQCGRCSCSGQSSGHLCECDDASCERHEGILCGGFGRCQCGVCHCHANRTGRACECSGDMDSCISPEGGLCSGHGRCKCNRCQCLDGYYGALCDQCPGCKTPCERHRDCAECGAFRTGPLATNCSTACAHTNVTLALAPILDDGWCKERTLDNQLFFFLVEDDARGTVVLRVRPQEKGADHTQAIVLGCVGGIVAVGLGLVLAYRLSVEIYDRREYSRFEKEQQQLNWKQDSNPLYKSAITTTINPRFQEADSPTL
T2 sequence (P13612 34-977 limits assumed, stated change not applied): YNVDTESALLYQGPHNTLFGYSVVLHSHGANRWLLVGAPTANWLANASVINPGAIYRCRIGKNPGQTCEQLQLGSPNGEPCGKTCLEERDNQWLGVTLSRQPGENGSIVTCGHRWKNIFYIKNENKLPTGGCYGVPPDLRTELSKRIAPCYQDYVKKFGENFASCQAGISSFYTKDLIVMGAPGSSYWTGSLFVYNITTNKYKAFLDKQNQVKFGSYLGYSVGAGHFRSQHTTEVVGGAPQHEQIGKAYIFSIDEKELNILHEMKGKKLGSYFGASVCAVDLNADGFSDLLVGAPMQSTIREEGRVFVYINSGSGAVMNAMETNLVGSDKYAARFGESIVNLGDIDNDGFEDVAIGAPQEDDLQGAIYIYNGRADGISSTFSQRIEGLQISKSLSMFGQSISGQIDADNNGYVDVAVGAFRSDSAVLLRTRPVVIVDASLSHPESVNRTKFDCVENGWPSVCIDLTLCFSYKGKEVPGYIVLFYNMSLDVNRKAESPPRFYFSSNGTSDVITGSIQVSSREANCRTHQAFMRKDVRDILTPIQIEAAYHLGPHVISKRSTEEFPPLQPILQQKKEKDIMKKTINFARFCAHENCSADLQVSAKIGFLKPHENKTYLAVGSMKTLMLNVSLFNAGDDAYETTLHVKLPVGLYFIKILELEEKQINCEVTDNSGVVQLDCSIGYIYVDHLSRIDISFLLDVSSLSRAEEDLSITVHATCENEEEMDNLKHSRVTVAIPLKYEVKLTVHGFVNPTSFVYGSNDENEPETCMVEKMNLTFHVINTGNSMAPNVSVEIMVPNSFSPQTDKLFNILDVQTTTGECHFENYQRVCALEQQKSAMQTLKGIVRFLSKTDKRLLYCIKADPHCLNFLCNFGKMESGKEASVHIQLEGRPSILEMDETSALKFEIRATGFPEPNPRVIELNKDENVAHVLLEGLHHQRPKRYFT
T2 sequence (P05556 21-728 limits assumed, stated change not applied): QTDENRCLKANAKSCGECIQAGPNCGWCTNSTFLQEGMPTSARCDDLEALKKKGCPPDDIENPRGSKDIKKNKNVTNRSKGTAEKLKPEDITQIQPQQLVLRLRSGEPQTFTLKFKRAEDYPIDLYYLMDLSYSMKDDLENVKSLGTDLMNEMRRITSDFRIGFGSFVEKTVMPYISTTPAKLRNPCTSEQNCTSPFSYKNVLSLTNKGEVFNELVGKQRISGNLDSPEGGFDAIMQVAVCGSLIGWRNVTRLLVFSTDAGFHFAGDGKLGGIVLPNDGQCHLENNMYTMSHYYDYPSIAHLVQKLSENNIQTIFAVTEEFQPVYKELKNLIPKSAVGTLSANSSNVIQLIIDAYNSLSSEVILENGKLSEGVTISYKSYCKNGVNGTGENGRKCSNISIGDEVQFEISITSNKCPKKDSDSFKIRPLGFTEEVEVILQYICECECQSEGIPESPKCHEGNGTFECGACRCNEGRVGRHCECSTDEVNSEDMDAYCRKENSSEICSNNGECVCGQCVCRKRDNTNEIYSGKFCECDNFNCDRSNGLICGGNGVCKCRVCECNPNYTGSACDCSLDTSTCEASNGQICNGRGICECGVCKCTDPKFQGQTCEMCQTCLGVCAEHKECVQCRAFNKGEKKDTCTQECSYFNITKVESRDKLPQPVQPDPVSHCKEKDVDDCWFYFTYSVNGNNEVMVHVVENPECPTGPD
T1 sequence (P13612 34-977 limits assumed): as the sequence (P13612 34-977 limits assumed, stated change not applied) above
T1 sequence (P26010 20-723 limits assumed): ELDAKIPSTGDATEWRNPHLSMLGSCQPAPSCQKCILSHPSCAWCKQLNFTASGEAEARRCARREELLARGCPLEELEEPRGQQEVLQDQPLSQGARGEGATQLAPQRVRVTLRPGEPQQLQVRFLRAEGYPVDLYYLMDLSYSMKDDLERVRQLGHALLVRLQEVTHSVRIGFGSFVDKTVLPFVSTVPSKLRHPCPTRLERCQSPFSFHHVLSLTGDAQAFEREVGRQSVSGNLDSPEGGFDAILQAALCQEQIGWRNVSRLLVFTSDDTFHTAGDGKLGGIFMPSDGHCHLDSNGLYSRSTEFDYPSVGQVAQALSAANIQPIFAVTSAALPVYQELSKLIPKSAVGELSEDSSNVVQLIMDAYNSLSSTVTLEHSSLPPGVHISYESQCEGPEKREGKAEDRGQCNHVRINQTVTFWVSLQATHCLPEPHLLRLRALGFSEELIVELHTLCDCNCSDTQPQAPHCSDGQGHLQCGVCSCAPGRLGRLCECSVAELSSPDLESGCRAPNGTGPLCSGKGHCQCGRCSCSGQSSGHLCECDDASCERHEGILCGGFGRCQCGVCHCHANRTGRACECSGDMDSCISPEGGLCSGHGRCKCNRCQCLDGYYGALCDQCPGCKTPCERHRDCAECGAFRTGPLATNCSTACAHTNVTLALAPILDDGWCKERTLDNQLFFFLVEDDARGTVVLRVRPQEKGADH

Compound | pIC50 (rh integrin α4β7; [1]) | pIC50 (α4β1; [2]) | pIC50 (α4β7; [3]) | pIC50 (rh integrin α4β7; [4]) | pIC50 (α4β1; [5]) | pIC50 (α4β7; [6])
CC(=O)N[C@@H]1C(=O)N(C)[C@@H](CCCNC(=N)N)C(=O)N[C@@H](CO)C(=O)N[C@@H](CC(=O)O)C(=O)N[C@@H]([C@@H](C)O)C(=O)N[C@@H](CC(C)C)C(=O)N[C@H](C(=O)N[C@@H](Cc2ccc(C(=O)O)cc2)C(=O)N[C@@H](CCC(=O)O)C(=O)N(C)[C@@H](CCCCNC(=O)COCC(=O)NCCCC[C@@H](C(N)=O)N(C)C(=O)[C@H](CCC(=O)O)NC(=O)[C@H](Cc2ccc(C(=O)O)cc2)NC(=O)[C@H]2NC(=O)[C@H](CC(C)C)NC(=O)[C@H]([C@@H](C)O)NC(=O)[C@H](CC(=O)O)NC(=O)[C@H](CO)NC(=O)[C@H](CCCNC(=N)N)N(C)C(=O)[C@@H](NC(C)=O)C(C)(C)SSC2(C)C)C(N)=O)C(C)(C)SSC1(C)C [compound 147] (I: Ac-[Pen][NMeR]SDTL[Pen][Phe(4-COOH)]E[NMeK]-NH2 / II: Ac-[Pen][NMeR]SDTL[Pen][Phe(4-COOH)]E[NMeK]-NH2; disulfide I:1-I:7, II:1-II:7; linker I:10-II:10 via Diglycolyl) | > 8.00 | 6.30 to 7.00 | > 8.00 |  |  | 
CC(=O)N[C@H]1CSSC[C@@H](C(=O)NCC(=O)N[C@@H](CCC(=O)O)C(=O)N[C@@H](CCCCN)C(=O)O)NC(=O)[C@H](CC(C)C)NC(=O)[C@H]([C@@H](C)O)NC(=O)[C@H](CC(=O)O)NC(=O)[C@H](CO)NC(=O)[C@H](CCCNC(=N)N)N(C)C1=O [compound 199, Ac-C-N-Me-R-S-D-T-L-C-G-E-K-OH] (Ac-C[NMeR]SDTLCGEK-OH; disulfide 1-7) |  |  |  | 7.24 | < 4.00 | 5.33
CC(=O)N[C@@H]1C(=O)N(C)[C@@H](CCCNC(=N)N)C(=O)N[C@@H](CO)C(=O)N[C@@H](CC(=O)O)C(=O)N[C@@H]([C@@H](C)O)C(=O)N[C@@H](CC(C)C)C(=O)N[C@H](C(=O)N[C@@H](Cc2c[nH]c3ccccc23)C(=O)N[C@H](CCC(=O)O)C(=O)N[C@H](CCCCNC(=O)COCC(=O)NCCCC[C@@H](NC(=O)[C@@H](CCC(=O)O)NC(=O)[C@H](Cc2c[nH]c3ccccc23)NC(=O)[C@H]2NC(=O)[C@H](CC(C)C)NC(=O)[C@H]([C@@H](C)O)NC(=O)[C@H](CC(=O)O)NC(=O)[C@H](CO)NC(=O)[C@H](CCCNC(=N)N)N(C)C(=O)[C@@H](NC(C)=O)C(C)(C)SSC2(C)C)C(=O)O)C(=O)O)C(C)(C)SSC1(C)C [compound 216, (Ac-Pen-N-Me-R-S-D-T-L-Pen-W-e-k-OH)2-DIG] (I: Ac-[Pen][NMeR]SDTL[Pen]W[dE][dK]-OH / II: Ac-[Pen][NMeR]SDTL[Pen]W[dE][dK]-OH; disulfide I:1-I:7, II:1-II:7 (inferred); linker I:10-II:10 via Diglycolyl (inferred)) |  |  |  | 8.55 | 6.61 | 8.38
CC(=O)N[C@@H]1C(=O)N(C)[C@@H](CCCNC(=N)N)C(=O)N[C@@H](CO)C(=O)N[C@@H](CC(=O)O)C(=O)N[C@@H]([C@@H](C)O)C(=O)N[C@@H](CC(C)C)C(=O)N[C@H](C(=O)N[C@@H](Cc2ccc(-c3ccccc3)cc2)C(=O)N[C@@H](CCC(=O)O)CC(=O)N(C)[C@@H](CCCCNC(=O)COCC(=O)NCCCC[C@@H](C(N)=O)N(C)C(=O)C[C@H](CCC(=O)O)NC(=O)[C@H](Cc2ccc(-c3ccccc3)cc2)NC(=O)[C@H]2NC(=O)[C@H](CC(C)C)NC(=O)[C@H]([C@@H](C)O)NC(=O)[C@H](CC(=O)O)NC(=O)[C@H](CO)NC(=O)[C@H](CCCNC(=N)N)N(C)C(=O)[C@@H](NC(C)=O)C(C)(C)SSC2(C)C)C(N)=O)C(C)(C)SSC1(C)C [compound 150] (I: Ac-[Pen][NMeR]SDTL[Pen][Bip][β3hE][NMeK]-NH2 / II: Ac-[Pen][NMeR]SDTL[Pen][Bip][β3hE][NMeK]-NH2; disulfide I:1-I:7, II:1-II:7; linker I:10-II:10 via Diglycolyl) | > 8.00 | 5.00 to 6.00 | > 8.00 |  |  | 
CC(=O)N[C@@H]1C(=O)N(C)[C@@H](CCCNC(=N)N)C(=O)N[C@@H](CO)C(=O)N[C@@H](CC(=O)O)C(=O)N[C@@H]([C@@H](C)O)C(=O)N[C@@H](CC(C)C)C(=O)N[C@H](C(=O)N[C@@H](Cc2ccc(C(C)(C)C)cc2)C(=O)N[C@@H](CCC(=O)O)CC(=O)N[C@H](CCCCN)C(N)=O)C(C)(C)SSC1(C)C [compound 153] (Ac-[Pen][NMeR]SDTL[Pen][Phe(4-tBu)][β3hE][dK]-NH2; disulfide 1-7) | 7.60 to 8.00 | 5.00 to 6.00 | 7.60 to 8.00 |  |  | 
CC(=O)N[C@@H]1C(=O)N(C)[C@@H](CCCNC(=N)N)C(=O)N[C@@H](CO)C(=O)N[C@@H](CC(=O)O)C(=O)N[C@@H]([C@@H](C)O)C(=O)N[C@@H](CC(C)C)C(=O)N[C@H](C(=O)N[C@@H](Cc2cccc3ccccc23)C(=O)N[C@@H](CCC(=O)O)C(=O)N(C)[C@H](CCCCNC(=O)COCC(=O)NCCCC[C@H](C(N)=O)N(C)C(=O)[C@H](CCC(=O)O)NC(=O)[C@H](Cc2cccc3ccccc23)NC(=O)[C@H]2NC(=O)[C@H](CC(C)C)NC(=O)[C@H]([C@@H](C)O)NC(=O)[C@H](CC(=O)O)NC(=O)[C@H](CO)NC(=O)[C@H](CCCNC(=N)N)N(C)C(=O)[C@@H](NC(C)=O)C(C)(C)SSC2(C)C)C(N)=O)C(C)(C)SSC1(C)C [compound 44] (I: Ac-[Pen][NMeR]SDTL[Pen][1Nal]E[dNMeK]-NH2 / II: Ac-[Pen][NMeR]SDTL[Pen][1Nal]E[dNMeK]-NH2; disulfide I:1-I:7, II:1-II:7; linker I:10-II:10 via Diglycolyl) | > 8.00 | 6.30 to 7.00 | > 8.00 |  |  | 
CC(=O)N[C@H]1CSSC[C@@H](C(=O)NCC(=O)N[C@@H](CCC(=O)O)C(=O)N[C@@H](CCCCNC(=O)COCC(=O)NCCCC[C@H](NC(=O)[C@H](CCC(=O)O)NC(=O)CNC(=O)[C@@H]2CSSC[C@H](NC(C)=O)C(=O)N(C)[C@@H](CCCNC(=N)N)C(=O)N[C@@H](CO)C(=O)N[C@@H](CC(=O)O)C(=O)N[C@@H]([C@@H](C)O)C(=O)N[C@@H](CC(C)C)C(=O)N2)C(=O)O)C(=O)O)NC(=O)[C@H](CC(C)C)NC(=O)[C@H]([C@@H](C)O)NC(=O)[C@H](CC(=O)O)NC(=O)[C@H](CO)NC(=O)[C@H](CCCNC(=N)N)N(C)C1=O [compound 201, (Ac-C-N-Me-R-S-D-T-L-C-G-E-K-OH)2-DIG] (I: Ac-C[NMeR]SDTLCGEK-OH / II: Ac-C[NMeR]SDTLCGEK-OH; disulfide I:1-I:7, II:1-II:7 (inferred); linker I:10-II:10 via Diglycolyl (inferred)) |  |  |  | 9.00 | 5.91 | 7.55
CC(=O)N[C@@H]1C(=O)N(C)[C@@H](CCCNC(=N)N)C(=O)N[C@@H](CO)C(=O)N[C@@H](CC(=O)O)C(=O)N[C@@H]([C@@H](C)O)C(=O)N[C@@H](CC(C)C)C(=O)N[C@H](C(=O)N[C@@H](Cc2c[nH]c3ccccc23)C(=O)N[C@@H](CCC(=O)O)C(=O)N[C@H](CCCCNC(=O)COCC(=O)NCCCC[C@@H](NC(=O)[C@H](CCC(=O)O)NC(=O)[C@H](Cc2c[nH]c3ccccc23)NC(=O)[C@H]2NC(=O)[C@H](CC(C)C)NC(=O)[C@H]([C@@H](C)O)NC(=O)[C@H](CC(=O)O)NC(=O)[C@H](CO)NC(=O)[C@H](CCCNC(=N)N)N(C)C(=O)[C@@H](NC(C)=O)C(C)(C)SSC2(C)C)C(N)=O)C(N)=O)C(C)(C)SSC1(C)C [compound 67] (I: Ac-[Pen][NMeR]SDTL[Pen]WE[dK]-NH2 / II: Ac-[Pen][NMeR]SDTL[Pen]WE[dK]-NH2; disulfide I:1-I:7, II:1-II:7; linker I:10-II:10 via Diglycolyl) | > 8.00 | 6.30 to 7.00 | > 8.00 |  |  | 
CC(=O)N[C@@H]1C(=O)N(C)[C@@H](CCCNC(=N)N)C(=O)N[C@@H](CO)C(=O)N[C@@H](CC(=O)O)C(=O)N[C@@H]([C@@H](C)O)C(=O)N[C@@H](CC(C)C)C(=O)N[C@H](C(=O)N[C@@H](Cc2ccc3ccccc3c2)C(=O)N[C@@H](CCC(=O)O)C(=O)N[C@H](CCCCNC(=O)COCC(=O)NCCCC[C@@H](NC(=O)[C@H](CCC(=O)O)NC(=O)[C@H](Cc2ccc3ccccc3c2)NC(=O)[C@H]2NC(=O)[C@H](CC(C)C)NC(=O)[C@H]([C@@H](C)O)NC(=O)[C@H](CC(=O)O)NC(=O)[C@H](CO)NC(=O)[C@H](CCCNC(=N)N)N(C)C(=O)[C@@H](NC(C)=O)C(C)(C)SSC2(C)C)C(N)=O)C(N)=O)C(C)(C)SSC1(C)C [compound 212, (Ac-Pen-N-Me-R-S-D-T-L-Pen-2-Nal-E-k-NH2)2-DIG] (I: Ac-[Pen][NMeR]SDTL[Pen][2Nal]E[dK]-NH2 / II: Ac-[Pen][NMeR]SDTL[Pen][2Nal]E[dK]-NH2; disulfide I:1-I:7, II:1-II:7 (inferred); linker I:10-II:10 via Diglycolyl (inferred)) |  |  |  | 8.70 | 7.15 | 8.60
